Experimental data taken from patent US20260200926A1, “TREM2 MODULATORS” (Muna Therapeutics ApS, priority 2022, published 2026).

Target: T1, Human TREM2 (Homo sapiens, UniProt Q9NZC2)
T1 construct: expressed in transfected cells
Assay: Human TREM2 activity: cellular phosphorylation of Syk (AlphaLISA SureFire Ultra p-SYK) in HEK293/DAP12+TREM2 stable cell line
Format: cell-based
Conditions: for Emax: HEK293, maximal response relative to reference agonist example 1B (remaining examples), read-out: Emax; for EC50: phospho-Syk AlphaLISA signal, HEK293/DAP12+TREM2 cells, concentration giving 50% of maximal response, read-out: EC50
Outline: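 The read-out was p-Syk (Tyr525/526), measured by AlphaLISA in lysates of a stable HEK293/DAP12+TREM2 clone. Cells (10,000/well, plated the day before) received compound for 30 min at 37 °C. Dosing used 8 points in quadruplicate, top 100 μM with 1:6 dilution, 0.5% final DMSO.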

T1 sequence (Q9NZC2 19-230): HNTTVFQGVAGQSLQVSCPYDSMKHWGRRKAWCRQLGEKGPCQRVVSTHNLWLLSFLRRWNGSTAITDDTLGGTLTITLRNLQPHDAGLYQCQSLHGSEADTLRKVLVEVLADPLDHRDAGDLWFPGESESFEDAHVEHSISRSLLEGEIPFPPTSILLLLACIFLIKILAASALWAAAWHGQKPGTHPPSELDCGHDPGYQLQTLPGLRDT
T1 sequence (O43914 22-113 partner): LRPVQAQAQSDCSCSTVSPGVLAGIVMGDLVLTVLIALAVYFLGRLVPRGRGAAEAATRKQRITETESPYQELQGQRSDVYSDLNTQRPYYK

Work on `Cc1cc([C@H]2CN(c3nc(-c4ccc(Cl)cc4F)c4nc(C)n(C)c(=O)c4n3)C[C@@H](C)O2)ccn1` (single isomer, unassigned) [Example 176B] yielded an Emax of 75 to 110% and an EC50 of 1 to 10 nM.
`Cc1nc2c(-c3ccc(F)cc3F)nc(N3C[C@@H](c4cnn(C5CC5)c4)O[C@@H](C)C3)nc2c(=O)n1C` (single isomer, unassigned) [Example 177A] was tested, and the Emax was < 75% and the EC50 was 10 to 100 nM.
In the case of `Cc1nc2c(-c3ccc(F)cc3F)nc(N3C[C@@H](C)O[C@@H](c4cnn(C5CC5)c4)C3)nc2c(=O)n1C` (single isomer, unassigned) [Example 177B], the Emax is reported as 75 to 110% and the EC50 is reported as 1 to 10 nM.
`Cc1nc2c(-c3ccc(Cl)cc3F)nc(N3C[C@@H](c4cnn(C5CC5)c4)O[C@@H](C)C3)nc2c(=O)n1C` (single isomer, unassigned) [Example 178A] was tested, and the Emax was 75 to 110% and the EC50 was 1 to 10 nM.
In the case of `Cc1nc2c(-c3ccc(Cl)cc3F)nc(N3C[C@@H](C)O[C@@H](c4cnn(C5CC5)c4)C3)nc2c(=O)n1C` (single isomer, unassigned) [Example 178B], the Emax is reported as 75 to 110% and the EC50 is reported as 1 to 10 nM.
With `Cc1cc([C@@H]2CN(c3nc(-c4ccc(C(F)(F)F)cc4F)c4nc(C)n(C)c(=O)c4n3)C[C@H](C)O2)ccn1` (single isomer, unassigned) [Example 179A] the Emax was 75 to 110% and the EC50 was 1 to 10 nM.
For `Cc1cc([C@H]2CN(c3nc(-c4ccc(C(F)(F)F)cc4F)c4nc(C)n(C)c(=O)c4n3)C[C@@H](C)O2)ccn1` (single isomer, unassigned) [Example 179B], the Emax was 75 to 110% and the EC50 was < 1 nM.
For `Cc1cc([C@@H]2CN(c3cc4c(=O)n(C)c(C)nc4c(-c4ccc(C(F)F)nc4)n3)CC(C)(C)O2)ccn1` (single isomer, unassigned) [Example 180A], the Emax was < 75% and the EC50 was > 1000 nM.
With `Cc1cc([C@H]2CN(c3cc4c(=O)n(C)c(C)nc4c(-c4ccc(C(F)F)nc4)n3)CC(C)(C)O2)ccn1` (single isomer, unassigned) [Example 180B] the Emax was < 75% and the EC50 was 10 to 100 nM.
In the case of `Cc1cc([C@@H]2CN(c3cc4c(=O)n(C)c(C)nc4c(-c4ccc(C(F)F)nc4)n3)CC(F)(F)O2)ccn1` (single isomer, unassigned) [Example 181A], the Emax is reported as < 75% and the EC50 is reported as 10 to 100 nM.
For `Cc1cc([C@H]2CN(c3cc4c(=O)n(C)c(C)nc4c(-c4ccc(C(F)F)nc4)n3)CC(F)(F)O2)ccn1` (single isomer, unassigned) [Example 181B], the Emax was 75 to 110% and the EC50 was 1 to 10 nM.
With `Cc1cc([C@@H]2CN(c3cc4c(=O)n(C)c(C)nc4c(-c4ccc(F)cc4F)n3)C[C@H](C)O2)ccn1` (single isomer, unassigned) [Example 182A] the Emax was > 110% and the EC50 was 1 to 10 nM.
For `Cc1cc([C@H]2CN(c3cc4c(=O)n(C)c(C)nc4c(-c4ccc(F)cc4F)n3)C[C@@H](C)O2)ccn1` (single isomer, unassigned) [Example 182B], the Emax was < 75% and the EC50 was 100 to 1000 nM.
`C[C@H]1CN(c2nc(-c3ccc(F)cc3F)c3nc(C(F)(F)F)n(C)c(=O)c3n2)C[C@@H](c2cnn(C3CC3)c2)O1` (single isomer, unassigned) [Example 183A] was tested, and the Emax was 75 to 110% and the EC50 was 1 to 10 nM.
In the case of `C[C@@H]1CN(c2nc(-c3ccc(F)cc3F)c3nc(C(F)(F)F)n(C)c(=O)c3n2)C[C@H](c2cnn(C3CC3)c2)O1` (single isomer, unassigned) [Example 183B], the Emax is reported as 75 to 110% and the EC50 is reported as < 1 nM.
`Cc1nc2c(-c3ccc(C(F)(F)F)nc3)nc(N3C[C@@H](c4cnn(C5CC5)c4)O[C@@H](C)C3)cc2c(=O)n1C` (single isomer, unassigned) [Example 184A] was tested, and the Emax was 75 to 110% and the EC50 was 1 to 10 nM.
With `Cc1nc2c(-c3ccc(C(F)(F)F)nc3)nc(N3C[C@@H](C)O[C@@H](c4cnn(C5CC5)c4)C3)cc2c(=O)n1C` (single isomer, unassigned) [Example 184B] the Emax was < 75% and the EC50 was 10 to 100 nM.
Molecule `Cn1c(C(F)(F)F)nc2c(-c3cc(F)c(F)cc3F)nc([C@@H]3CCO[C@H](c4cnn(C5CC5)c4)C3)nc2c1=O` (single isomer, unassigned) [Example 186A] has an Emax of 75 to 110% and an EC50 of 1 to 10 nM.
For `Cn1c(C(F)(F)F)nc2c(-c3cc(F)c(F)cc3F)nc([C@H]3CCO[C@@H](c4cnn(C5CC5)c4)C3)nc2c1=O` (single isomer, unassigned) [Example 186B], the Emax was < 75% and the EC50 was 100 to 1000 nM.
`Cc1cc([C@@H]2CN(c3cc4c(=O)n(C)c(C(F)(F)F)nc4c(-c4ccc(F)cc4F)n3)C[C@H](C)O2)ccn1` (single isomer, unassigned) [Example 189A] was tested, and the Emax was 75 to 110% and the EC50 was 10 to 100 nM.
`Cc1cc([C@H]2CN(c3cc4c(=O)n(C)c(C(F)(F)F)nc4c(-c4ccc(F)cc4F)n3)C[C@@H](C)O2)ccn1` (single isomer, unassigned) [Example 189B] was tested, and the Emax was 75 to 110% and the EC50 was 100 to 1000 nM.
With `Cc1nc2c(-c3ccc(F)cc3F)nc(N3C[C@@H](c4cnn(C5CC5)c4)O[C@@H](C)C3)cc2c(=O)n1C` (single isomer, unassigned) [Example 190A] the Emax was 75 to 110% and the EC50 was 10 to 100 nM.
With `Cc1nc2c(-c3ccc(F)cc3F)nc(N3C[C@@H](C)O[C@@H](c4cnn(C5CC5)c4)C3)cc2c(=O)n1C` (single isomer, unassigned) [Example 190B] the Emax was < 75% and the EC50 was 100 to 1000 nM.
For `Cc1cc([C@@H]2CN(c3nc(-c4ccc(F)cc4F)c4nc(C(F)(F)F)n(C)c(=O)c4n3)C[C@H](C)O2)ccn1` (single isomer, unassigned) [Example 191A], the Emax was < 75% and the EC50 was < 1 nM.
`Cc1cc([C@H]2CN(c3nc(-c4ccc(F)cc4F)c4nc(C(F)(F)F)n(C)c(=O)c4n3)C[C@@H](C)O2)ccn1` (single isomer, unassigned) [Example 191B] showed an Emax of 75 to 110% and an EC50 of 1 to 10 nM.
In the case of `Cc1cc([C@@H]2CN(c3cc4c(=O)n(C)c(C)nc4c(-c4ccc(C(F)F)nc4)n3)C[C@H](C)O2)ccn1` (single isomer, unassigned) [Example 192A], the Emax is reported as < 75% and the EC50 is reported as 100 to 1000 nM.
With `Cc1cc([C@H]2CN(c3cc4c(=O)n(C)c(C)nc4c(-c4ccc(C(F)F)nc4)n3)C[C@@H](C)O2)ccn1` (single isomer, unassigned) [Example 192B] the Emax was 75 to 110% and the EC50 was 1 to 10 nM.
With `C[C@H]1CN(c2cc3c(=O)n(C)c(C(F)(F)F)nc3c(-c3ccc(F)cc3F)n2)C[C@@H](c2cnn(C3CC3)c2)O1` (single isomer, unassigned) [Example 193A] the Emax was 75 to 110% and the EC50 was 1 to 10 nM.
With `C[C@@H]1CN(c2cc3c(=O)n(C)c(C(F)(F)F)nc3c(-c3ccc(F)cc3F)n2)C[C@H](c2cnn(C3CC3)c2)O1` (single isomer, unassigned) [Example 193B] the Emax was < 75% and the EC50 was 10 to 100 nM.
`Cc1nc2c(-c3ccc(C(F)F)nc3)nc(N3C[C@@H](c4cnn(C5CC5)c4)O[C@@H](C)C3)cc2c(=O)n1C` (single isomer, unassigned) [Example 194A] showed an Emax of 75 to 110% and an EC50 of 10 to 100 nM.
In the case of `Cc1nc2c(-c3ccc(C(F)F)nc3)nc(N3C[C@@H](C)O[C@@H](c4cnn(C5CC5)c4)C3)cc2c(=O)n1C` (single isomer, unassigned) [Example 194B], the Emax is reported as < 75% and the EC50 is reported as 100 to 1000 nM.
`Cc1nc2c(-c3ccc(C(F)(F)F)cc3F)nc(N3C[C@@H](c4cnn(C5CC5)c4)O[C@@H](C)C3)nc2c(=O)n1C` (single isomer, unassigned) [Example 195A] was tested, and the Emax was < 75% and the EC50 was 1 to 10 nM.
With `Cc1nc2c(-c3ccc(C(F)(F)F)cc3F)nc(N3C[C@@H](C)O[C@@H](c4cnn(C5CC5)c4)C3)nc2c(=O)n1C` (single isomer, unassigned) [Example 195B] the Emax was 75 to 110% and the EC50 was < 1 nM.
Work on `Cn1c(C(F)(F)F)nc2c(-c3ccc(F)cc3F)nc([C@@H]3CCO[C@H](c4cnn(C5CC5)c4)C3)nc2c1=O` (single isomer, unassigned) [Example 196A] yielded an Emax of 75 to 110% and an EC50 of 1 to 10 nM.
With `Cn1c(C(F)(F)F)nc2c(-c3ccc(F)cc3F)nc([C@H]3CCO[C@@H](c4cnn(C5CC5)c4)C3)nc2c1=O` (single isomer, unassigned) [Example 196B] the Emax was < 75% and the EC50 was 10 to 100 nM.
In the case of `Cn1c(C(F)(F)F)nc2c(-c3ccc(F)cc3F)nc([C@@H]3CCO[C@H](c4cnn(C5CC5)c4)C3)cc2c1=O` (single isomer, unassigned) [Example 197A], the Emax is reported as < 75% and the EC50 is reported as 10 to 100 nM.
In the case of `Cn1c(C(F)(F)F)nc2c(-c3ccc(F)cc3F)nc([C@H]3CCO[C@@H](c4cnn(C5CC5)c4)C3)cc2c1=O` (single isomer, unassigned) [Example 197B], the Emax is reported as < 75% and the EC50 is reported as 1 to 10 nM.
With `Cc1cc([C@@H]2CN(c3cc4c(=O)n(C)c(C)nc4c(-c4ccc(C(F)(F)F)nc4)n3)C[C@H](C)O2)ccn1` (single isomer, unassigned) [Example 199A] the Emax was < 75% and the EC50 was 10 to 100 nM.
In the case of `Cc1cc([C@H]2CN(c3cc4c(=O)n(C)c(C)nc4c(-c4ccc(C(F)(F)F)nc4)n3)C[C@@H](C)O2)ccn1` (single isomer, unassigned) [Example 199B], the Emax is reported as 75 to 110% and the EC50 is reported as < 1 nM.
`Cc1nc2c(-c3ccc(C#N)cc3F)nc(N3C[C@@H](c4cnn(C5CC5)c4)O[C@@H](C)C3)cc2c(=O)n1C` (single isomer, unassigned) [Example 200A] was tested, and the Emax was 75 to 110% and the EC50 was < 1 nM.
Molecule `Cc1nc2c(-c3ccc(C#N)cc3F)nc(N3C[C@@H](C)O[C@@H](c4cnn(C5CC5)c4)C3)cc2c(=O)n1C` (single isomer, unassigned) [Example 200B] has an Emax of 75 to 110% and an EC50 of 10 to 100 nM.
In the case of `Cc1nc2c(-c3ccc(F)cc3C#N)nc(N3C[C@@H](c4cnn(C5CC5)c4)O[C@@H](C)C3)cc2c(=O)n1C` (single isomer, unassigned) [Example 201A], the Emax is reported as < 75% and the EC50 is reported as > 1000 nM.
`Cc1nc2c(-c3ccc(F)cc3C#N)nc(N3C[C@@H](C)O[C@@H](c4cnn(C5CC5)c4)C3)cc2c(=O)n1C` (single isomer, unassigned) [Example 201B] was tested, and the Emax was < 75% and the EC50 was > 1000 nM.
